Among the data in patent US20250213555A1, “SUBSTITUTED TETRAHYDROFURAN ANALOGS AS MODULATORS OF SODIUM CHANNELS” (VERTEX PHARMACEUTICALS INCORPORATED, priority 2021, published 2025) are IC50 values, retold here.

Where only a bound is given, the exact number is not on record here.

One may read the IC50 as the midpoint of a concentration-inhibition curve.

human Nav 1.8, sequence (Q9Y5Y9 126-399 limits assumed): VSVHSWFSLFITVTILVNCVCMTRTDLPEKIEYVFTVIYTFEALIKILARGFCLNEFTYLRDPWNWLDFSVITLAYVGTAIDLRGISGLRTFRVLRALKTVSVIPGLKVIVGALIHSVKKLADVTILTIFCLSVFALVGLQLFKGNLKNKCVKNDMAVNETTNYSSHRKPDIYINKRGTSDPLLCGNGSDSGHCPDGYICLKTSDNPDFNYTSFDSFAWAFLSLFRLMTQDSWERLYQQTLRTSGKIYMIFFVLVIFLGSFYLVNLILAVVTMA
human Nav 1.8, sequence (Q9Y5Y9 660-890 limits assumed): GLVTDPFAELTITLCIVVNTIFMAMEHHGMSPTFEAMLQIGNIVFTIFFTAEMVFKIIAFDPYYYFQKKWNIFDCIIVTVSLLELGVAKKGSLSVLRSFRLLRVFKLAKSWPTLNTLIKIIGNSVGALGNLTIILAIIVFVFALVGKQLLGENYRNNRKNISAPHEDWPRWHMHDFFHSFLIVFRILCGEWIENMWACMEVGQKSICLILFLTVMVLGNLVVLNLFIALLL
human Nav 1.8, sequence (Q9Y5Y9 1148-1722 limits assumed): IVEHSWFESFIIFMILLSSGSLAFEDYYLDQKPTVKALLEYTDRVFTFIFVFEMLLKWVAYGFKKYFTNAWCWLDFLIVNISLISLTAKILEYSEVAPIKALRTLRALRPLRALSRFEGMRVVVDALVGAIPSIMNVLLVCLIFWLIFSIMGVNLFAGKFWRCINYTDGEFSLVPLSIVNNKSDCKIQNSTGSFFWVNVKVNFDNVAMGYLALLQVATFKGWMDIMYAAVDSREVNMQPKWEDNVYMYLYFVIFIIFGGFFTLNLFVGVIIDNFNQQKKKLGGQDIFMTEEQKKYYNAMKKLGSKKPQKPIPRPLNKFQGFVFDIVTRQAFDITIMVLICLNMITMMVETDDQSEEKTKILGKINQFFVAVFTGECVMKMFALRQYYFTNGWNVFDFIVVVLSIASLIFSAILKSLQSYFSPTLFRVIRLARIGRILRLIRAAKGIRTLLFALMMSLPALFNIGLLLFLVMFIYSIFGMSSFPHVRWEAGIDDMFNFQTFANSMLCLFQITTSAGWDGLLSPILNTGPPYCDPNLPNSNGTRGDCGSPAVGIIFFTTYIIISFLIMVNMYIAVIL

This test deals with human Nav 1.8 (Homo sapiens, UniProt Q9Y5Y9). In words: E-VIPR assay detecting and measuring Nav inhibition properties. In kind it is cell-based. Particulars: HEK cells expressing a truncated form of human Nav 1.8; compound numbers without "*" (not marked as run in the presence of human serum); read-out: measured IC50 value in the E-VIPR Assay. In a few lines:
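Nav inhibition was read by E-VIPR: cells were electrically stimulated while coumarin/oxonol FRET emissions were recorded. Cells were HEK expressing a truncated human Nav 1.8 and co-transduced with KIR2.1, and were assayed in 25% final human serum.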
Take `COc1c([C@H]2[C@H](C(=O)Nc3ccnc(C(=O)N4C5CC4CN(C)C5)c3)O[C@@](C)(C(F)(F)F)[C@H]2C)ccc(F)c1F` [Compound 276, (2R,3S,4S,5R)-3-(3,4-difluoro-2-methoxyphenyl)-4,5-dimethyl-N-(2-(3-methyl-3,6-diazabicyclo[3.1.1]heptane-6-carbonyl)pyridin-4-yl)-5-(trifluoromethyl)tetrahydrofuran-2-carboxamide]: the IC50 was in the range of 10 to 100 nM.
In the case of `C=C(COC)COc1c([C@H]2[C@H](C(=O)Nc3ccnc(C(N)=O)c3)O[C@@](C)(C(F)(F)F)[C@H]2C)ccc(F)c1F` [Compound 135], the IC50 fell in the range of 10 to 100 nM.
For `C[C@H]1[C@@H](c2ccc(F)c(F)c2OCCN2CC(OC(F)F)C2)[C@H](C(=O)Nc2ccnc(C(N)=O)c2)O[C@@]1(C)C(F)(F)F` [Compound 119, 4-((2R,3S,4S,5R)-3-(2-(2-(3-(difluoromethoxy)azetidin-1-yl)ethoxy)-3,4-difluorophenyl)-4,5-dimethyl-5-(trifluoromethyl)tetrahydrofuran-2-carboxamido)picolinamide], the IC50 was under 10 nM.
For `C=C(/C=C/Oc1c([C@H]2[C@H](C(=O)Nc3ccnc(C(N)=O)c3)O[C@@](C)(C(F)(F)F)[C@H]2C)ccc(F)c1F)C(F)(F)F` [Compound 172, 4-((2R,3S,4S,5R)-3-(3,4-difluoro-2-(((E)-3-(trifluoromethyl)buta-1,3-dien-1-yl)oxy)phenyl)-4,5-dimethyl-5-(trifluoromethyl)tetrahydrofuran-2-carboxamido)picolinamide], the IC50 fell in the range of 10 to 100 nM.
With `C[C@H]1[C@@H](c2ccc(F)c(F)c2OCCN=S(C)(C)=O)[C@H](C(=O)Nc2ccnc(C(N)=O)c2)O[C@@]1(C)C(F)(F)F` [Compound 130, 4-((2R,3S,4S,5R)-3-(2-(2-((dimethyl(oxo)-26-sulfaneylidene)amino)ethoxy)-3,4-difluorophenyl)-4,5-dimethyl-5-(trifluoromethyl)tetrahydrofuran-2-carboxamido)picolinamide] the figure was under 10 nM; with `C[C@H]1[C@@H](c2ccc(F)c(F)c2OCC(=NO)C2(F)CC2)[C@H](C(=O)Nc2ccnc(C(N)=O)c2)O[C@@]1(C)C(F)(F)F` [Compound 190, 4-((2R,3S,4S,5R)-3-(3,4-difluoro-2-(2-(1-fluorocyclopropyl)-2-(hydroxyimino)ethoxy)phenyl)-4,5-dimethyl-5-(trifluoromethyl)tetrahydrofuran-2-carboxamido)picolinamide], under 10 nM; with `COc1c([C@H]2[C@H](C(=O)Nc3ccnc(C(=O)N4CCN(C)C(C)(C)C4)c3)O[C@@](C)(C(F)(F)F)[C@H]2C)ccc(F)c1F` [Compound 280, (2R,3S,4S,5R)-3-(3,4-difluoro-2-methoxyphenyl)-4,5-dimethyl-5-(trifluoromethyl)-N-(2-(3,3,4-trimethylpiperazine-1-carbonyl)pyridin-4-yl)tetrahydrofuran-2-carboxamide], under 10 nM.
With `C[C@H]1[C@@H](c2ccc(F)c(F)c2OC2CCC(O)C2)[C@H](C(=O)Nc2ccnc(C(N)=O)c2)O[C@@]1(C)C(F)(F)F` (stereo partly drawn) [Compound 175, 4-((2R,3S,4S,5R)-3-(3,4-difluoro-2-((3-hydroxycyclopentyl)oxy)phenyl)-4,5-dimethyl-5-(trifluoromethyl)tetrahydrofuran-2-carboxamido)picolinamide], the IC50 was under 10 nM.
For `C[C@H]1[C@@H](c2ccc(F)c(F)c2OCCN2C[C@H]3COC[C@H]3C2)[C@H](C(=O)Nc2ccnc(C(N)=O)c2)O[C@@]1(C)C(F)(F)F` [Compound 55, 4-((2R,3S,4S,5R)-3-(3,4-difluoro-2-(2-((3aR,6aS)-tetrahydro-1H-furo[3,4-c]pyrrol-5(3H)-yl)ethoxy)phenyl)-4,5-dimethyl-5-(trifluoromethyl)tetrahydrofuran-2-carboxamido)picolinamide], the IC50 is under 10 nM.
As for `COc1c([C@H]2[C@H](C(=O)Nc3ccnc(C(=O)N4CCNC(C)(C)C4)c3)O[C@@](C)(C(F)(F)F)[C@H]2C)ccc(F)c1F` [Compound 241, (2R,3S,4S,5R)-3-(3,4-difluoro-2-methoxyphenyl)-N-(2-(3,3-dimethylpiperazine-1-carbonyl)pyridin-4-yl)-4,5-dimethyl-5-(trifluoromethyl)tetrahydrofuran-2-carboxamide], the IC50 is under 10 nM.
Regarding `C[C@H]1[C@@H](c2ccc(F)c(F)c2OCCC(C)(C)O)[C@H](C(=O)Nc2ccnc(C(N)=O)c2)O[C@@]1(C)C(F)(F)F` [Compound 100, 4-((2R,3S,4S,5R)-3-(3,4-difluoro-2-(3-hydroxy-3-methylbutoxy)phenyl)-4,5-dimethyl-5-(trifluoromethyl)tetrahydrofuran-2-carboxamido)picolinamide], the IC50 lay within 10 to 100 nM.
On to `C[C@@H]1COCCN1CCOc1c([C@H]2[C@H](C(=O)Nc3ccnc(C(N)=O)c3)O[C@@](C)(C(F)(F)F)[C@H]2C)ccc(F)c1F` [Compound 56, 4-((2R,3S,4S,5R)-3-(3,4-difluoro-2-(2-((R)-3-methylmorpholino)ethoxy)phenyl)-4,5-dimethyl-5-(trifluoromethyl)tetrahydrofuran-2-carboxamido)picolinamide], for which the IC50 is under 10 nM.
With `COc1c([C@H]2[C@H](C(=O)Nc3ccnc(C(=O)N4CC5(CCCN5C)C4)c3)O[C@@](C)(C(F)(F)F)[C@H]2C)ccc(F)c1F` [Compound 270, (2R,3S,4S,5R)-3-(3,4-difluoro-2-methoxyphenyl)-4,5-dimethyl-N-(2-(5-methyl-2,5-diazaspiro[3.4]octane-2-carbonyl)pyridin-4-yl)-5-(trifluoromethyl)tetrahydrofuran-2-carboxamide], the IC50 is 10 to 100 nM.
With `C[C@H]1[C@@H](c2ccc(F)c(F)c2OCCCN2CCOCC2)[C@H](C(=O)Nc2ccnc(C(N)=O)c2)O[C@@]1(C)C(F)(F)F` [Compound 62, 4-((2R,3S,4S,5R)-3-(3,4-difluoro-2-(3-morpholinopropoxy)phenyl)-4,5-dimethyl-5-(trifluoromethyl)tetrahydrofuran-2-carboxamido)picolinamide], the IC50 is under 10 nM.
On to `C[C@H]1[C@@H](c2cccc(C(F)(F)F)c2O[C@H]2C[C@@H](O)C2)[C@H](C(=O)Nc2ccnc(C(N)=O)c2)O[C@@]1(C)C(F)(F)F` [Compound 212, 4-((2R,3S,4S,5R)-3-(2-((1s,3R)-3-hydroxycyclobutoxy)-3-(trifluoromethyl)phenyl)-4,5-dimethyl-5-(trifluoromethyl)tetrahydrofuran-2-carboxamido) picolinamide], for which the IC50 is under 10 nM.
Regarding `COc1c([C@H]2[C@H](C(=O)Nc3ccnc(C(=O)N4C[C@H](N)[C@@H](F)C4)c3)O[C@@](C)(C(F)(F)F)[C@H]2C)ccc(F)c1F` [Compound 260, (2R,3S,4S,5R)-N-(2-((3S,4S)-3-amino-4-fluoropyrrolidine-1-carbonyl)pyridin-4-yl)-3-(3,4-difluoro-2-methoxyphenyl)-4,5-dimethyl-5-(trifluoromethyl)tetrahydrofuran-2-carboxamide], the IC50 was under 10 nM.
With `C[C@H]1[C@@H](c2ccc(F)c(F)c2OCCCC#N)[C@H](C(=O)Nc2ccnc(C(N)=O)c2)O[C@@]1(C)C(F)(F)F` [Compound 76, 4-((2R,3S,4S,5R)-3-(2-(3-cyanopropoxy)-3,4-difluorophenyl)-4,5-dimethyl-5-(trifluoromethyl)tetrahydrofuran-2-carboxamido)picolinamide] the figure was under 10 nM; with `COc1c([C@H]2[C@H](C(=O)Nc3cc(C(=O)N4CCN(C)CC4)ccn3)O[C@@](C)(C(F)(F)F)[C@H]2C)ccc(F)c1F` [Compound 14, (2R,3S,4S,5R)-3-(3,4-difluoro-2-methoxyphenyl)-4,5-dimethyl-N-(4-(4-methylpiperazine-1-carbonyl)pyridin-2-yl)-5-(trifluoromethyl)tetrahydrofuran-2-carboxamide], 100 to 1000 nM.
In the case of `COCc1c([C@H]2[C@H](C(=O)Nc3ccnc(C(N)=O)c3)O[C@@](C)(C(F)(F)F)[C@H]2C)ccc(F)c1F` (racemic) [Compound 145, rac-4-((2R,3S,4S,5R)-3-(3,4-difluoro-2-(methoxymethyl)phenyl)-4,5-dimethyl-5-(trifluoromethyl)tetrahydrofuran-2-carboxamido)picolinamide], the IC50 is under 10 nM.
Consider `COC1CC(Oc2c([C@H]3[C@H](C(=O)Nc4ccnc(C(N)=O)c4)O[C@@](C)(C(F)(F)F)[C@H]3C)ccc(F)c2F)C1` (stereo partly drawn) [Compound 162, 4-((2R,3S,4S,5R)-3-(3,4-difluoro-2-(3-methoxycyclobutoxy)phenyl)-4,5-dimethyl-5-(trifluoromethyl)tetrahydrofuran-2-carboxamido)picolinamide], for which the IC50 was under 10 nM.
As for `COc1c([C@H]2[C@H](C(=O)Nc3ccnc(C(=O)N4C5CNCC4C5)c3)O[C@@](C)(C(F)(F)F)[C@H]2C)ccc(F)c1F` [Compound 237, (2R,3S,4S,5R)-N-(2-(3,6-diazabicyclo[3.1.1]heptane-6-carbonyl)pyridin-4-yl)-3-(3,4-difluoro-2-methoxyphenyl)-4,5-dimethyl-5-(trifluoromethyl)tetrahydrofuran-2-carboxamide], the half-maximal inhibitory concentration (IC50) was 10 to 100 nM.
Consider `COc1c([C@H]2[C@H](C(=O)Nc3cccc(C(=O)N4CCN(C)CC4)n3)O[C@@](C)(C(F)(F)F)[C@H]2C)ccc(F)c1F` [Compound 10, (2R,3S,4S,5R)-3-(3,4-difluoro-2-methoxyphenyl)-4,5-dimethyl-N-(6-(4-methylpiperazine-1-carbonyl)pyridin-2-yl)-5-(trifluoromethyl)tetrahydrofuran-2-carboxamide], for which the IC50 was in the range of 100 to 1000 nM.
As to `COC1CN(CCOc2c([C@H]3[C@H](C(=O)Nc4ccnc(C(N)=O)c4)O[C@@](C)(C(F)(F)F)[C@H]3C)ccc(F)c2F)C1` [Compound 52, 4-((2R,3S,4S,5R)-3-(3,4-difluoro-2-(2-(3-methoxyazetidin-1-yl)ethoxy)phenyl)-4,5-dimethyl-5-(trifluoromethyl)tetrahydrofuran-2-carboxamido)picolinamide], the IC50 is under 10 nM.
